According to ChEMBL document CHEMBL5291721, “A preclinical secondary pharmacology resource illuminates target-adverse drug reaction associations of marketed drugs” (Nat Commun, 2023):

Key:
[1] = biological target: 3',5'-cyclic-AMP phosphodiesterase 4D (Homo sapiens, UniProt Q08499); format: functional
[2] = biological target: T1, Type-1 angiotensin II receptor (Homo sapiens, UniProt P30556)
T1 sequence (P30556 whole entry): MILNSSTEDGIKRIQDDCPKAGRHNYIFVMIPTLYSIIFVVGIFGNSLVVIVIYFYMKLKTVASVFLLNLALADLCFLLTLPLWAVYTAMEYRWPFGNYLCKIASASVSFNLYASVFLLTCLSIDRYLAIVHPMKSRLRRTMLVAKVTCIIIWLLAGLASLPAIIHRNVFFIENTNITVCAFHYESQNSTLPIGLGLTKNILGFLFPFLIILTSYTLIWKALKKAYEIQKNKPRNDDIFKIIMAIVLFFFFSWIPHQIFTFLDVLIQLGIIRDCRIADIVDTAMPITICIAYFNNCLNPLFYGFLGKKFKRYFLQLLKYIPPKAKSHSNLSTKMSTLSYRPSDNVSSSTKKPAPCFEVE

[3] = biological target: T2, Muscarinic acetylcholine receptor M2 (Homo sapiens, UniProt P08172); format: functional, cell-based
T2 sequence (P08172 whole entry): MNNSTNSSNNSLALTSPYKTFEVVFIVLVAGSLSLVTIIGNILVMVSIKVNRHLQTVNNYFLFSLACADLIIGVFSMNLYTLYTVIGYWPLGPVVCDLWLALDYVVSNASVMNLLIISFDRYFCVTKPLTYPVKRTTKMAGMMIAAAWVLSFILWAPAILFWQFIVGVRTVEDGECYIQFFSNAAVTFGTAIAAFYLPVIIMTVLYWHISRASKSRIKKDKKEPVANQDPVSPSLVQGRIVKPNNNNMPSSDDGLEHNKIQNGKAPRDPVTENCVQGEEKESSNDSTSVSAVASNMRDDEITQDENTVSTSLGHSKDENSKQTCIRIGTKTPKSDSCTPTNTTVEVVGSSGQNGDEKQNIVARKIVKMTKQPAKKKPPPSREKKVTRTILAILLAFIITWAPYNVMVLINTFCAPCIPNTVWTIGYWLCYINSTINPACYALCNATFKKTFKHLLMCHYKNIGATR

Histamine H2 receptor = Histamine H2 receptor (Homo sapiens, UniProt P25021); format: functional, cell-based
D(3) dopamine receptor = D(3) dopamine receptor (Homo sapiens, UniProt P35462)
[4] = biological target: T3, 5-hydroxytryptamine receptor 3A (Homo sapiens, UniProt P46098); format: functional
T3 sequence (P46098 whole entry): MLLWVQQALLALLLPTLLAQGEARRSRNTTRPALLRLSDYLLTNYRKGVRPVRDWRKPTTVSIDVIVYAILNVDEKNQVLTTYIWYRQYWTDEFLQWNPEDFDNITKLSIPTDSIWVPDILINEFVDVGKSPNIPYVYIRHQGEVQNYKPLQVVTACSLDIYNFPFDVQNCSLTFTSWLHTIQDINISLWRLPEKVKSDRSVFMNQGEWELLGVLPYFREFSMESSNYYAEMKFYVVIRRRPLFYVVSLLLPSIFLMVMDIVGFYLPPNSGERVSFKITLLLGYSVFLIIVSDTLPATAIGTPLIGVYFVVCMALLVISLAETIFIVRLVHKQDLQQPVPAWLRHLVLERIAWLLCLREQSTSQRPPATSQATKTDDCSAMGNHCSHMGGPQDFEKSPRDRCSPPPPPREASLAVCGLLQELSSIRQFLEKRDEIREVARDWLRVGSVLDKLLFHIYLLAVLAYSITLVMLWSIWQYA

[5] = biological target: 5-hydroxytryptamine receptor 2B (Homo sapiens, UniProt P41595); format: functional, cell-based
[6] = biological target: T4, 5-hydroxytryptamine receptor 2C (Homo sapiens, UniProt P28335)
T4 sequence (P28335 whole entry): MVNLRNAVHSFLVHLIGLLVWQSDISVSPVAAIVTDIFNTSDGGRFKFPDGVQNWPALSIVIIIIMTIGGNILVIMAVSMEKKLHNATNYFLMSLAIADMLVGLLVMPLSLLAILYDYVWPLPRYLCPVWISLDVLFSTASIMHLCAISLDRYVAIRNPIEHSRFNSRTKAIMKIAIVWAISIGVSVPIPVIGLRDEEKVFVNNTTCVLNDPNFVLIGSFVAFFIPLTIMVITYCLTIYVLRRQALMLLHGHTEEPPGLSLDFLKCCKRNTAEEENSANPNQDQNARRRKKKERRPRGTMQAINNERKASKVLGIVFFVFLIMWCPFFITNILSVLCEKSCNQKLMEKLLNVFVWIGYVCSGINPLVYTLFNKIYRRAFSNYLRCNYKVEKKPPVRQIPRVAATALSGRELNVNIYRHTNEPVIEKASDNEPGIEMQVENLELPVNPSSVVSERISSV

Glucocorticoid receptor = biological target: T5, Glucocorticoid receptor (Homo sapiens, UniProt P04150)
T5 sequence (P04150 whole entry): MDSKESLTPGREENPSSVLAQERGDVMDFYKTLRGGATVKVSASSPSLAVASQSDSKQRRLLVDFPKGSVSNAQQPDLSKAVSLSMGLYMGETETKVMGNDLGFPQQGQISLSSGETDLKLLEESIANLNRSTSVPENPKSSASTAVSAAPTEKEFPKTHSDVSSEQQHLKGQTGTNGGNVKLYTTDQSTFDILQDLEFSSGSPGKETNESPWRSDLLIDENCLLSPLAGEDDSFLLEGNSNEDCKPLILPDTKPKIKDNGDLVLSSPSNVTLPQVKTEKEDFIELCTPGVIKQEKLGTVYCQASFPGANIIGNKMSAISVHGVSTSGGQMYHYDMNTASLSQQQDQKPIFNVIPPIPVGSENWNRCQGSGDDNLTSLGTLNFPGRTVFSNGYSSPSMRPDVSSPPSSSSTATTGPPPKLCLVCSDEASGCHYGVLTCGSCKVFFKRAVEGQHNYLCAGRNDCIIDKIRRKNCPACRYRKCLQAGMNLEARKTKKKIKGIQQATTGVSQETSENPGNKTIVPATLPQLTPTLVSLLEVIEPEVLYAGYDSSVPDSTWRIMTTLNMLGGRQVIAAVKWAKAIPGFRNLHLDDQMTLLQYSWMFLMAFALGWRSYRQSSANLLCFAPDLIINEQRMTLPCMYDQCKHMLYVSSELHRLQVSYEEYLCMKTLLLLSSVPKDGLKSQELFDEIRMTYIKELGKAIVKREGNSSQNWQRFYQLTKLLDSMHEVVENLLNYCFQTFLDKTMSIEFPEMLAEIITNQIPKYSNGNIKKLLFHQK

Cannabinoid receptor 1 = Cannabinoid receptor 1 (Homo sapiens, UniProt P21554); format: functional, cell-based
Note: assay procedure not described here.

Chain of D(3) dopamine receptor (P35462 whole entry): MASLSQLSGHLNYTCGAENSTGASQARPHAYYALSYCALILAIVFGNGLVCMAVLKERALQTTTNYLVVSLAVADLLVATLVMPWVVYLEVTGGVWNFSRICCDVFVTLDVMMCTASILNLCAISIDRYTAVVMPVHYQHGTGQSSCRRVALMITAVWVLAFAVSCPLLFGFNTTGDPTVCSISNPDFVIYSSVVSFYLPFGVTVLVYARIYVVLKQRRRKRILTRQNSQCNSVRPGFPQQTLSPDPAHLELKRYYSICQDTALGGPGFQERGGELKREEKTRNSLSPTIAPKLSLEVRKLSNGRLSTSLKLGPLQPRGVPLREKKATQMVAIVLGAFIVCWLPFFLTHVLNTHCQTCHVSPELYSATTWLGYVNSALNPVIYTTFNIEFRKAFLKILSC
Chain of 3',5'-cyclic-AMP phosphodiesterase 4D (Q08499 whole entry): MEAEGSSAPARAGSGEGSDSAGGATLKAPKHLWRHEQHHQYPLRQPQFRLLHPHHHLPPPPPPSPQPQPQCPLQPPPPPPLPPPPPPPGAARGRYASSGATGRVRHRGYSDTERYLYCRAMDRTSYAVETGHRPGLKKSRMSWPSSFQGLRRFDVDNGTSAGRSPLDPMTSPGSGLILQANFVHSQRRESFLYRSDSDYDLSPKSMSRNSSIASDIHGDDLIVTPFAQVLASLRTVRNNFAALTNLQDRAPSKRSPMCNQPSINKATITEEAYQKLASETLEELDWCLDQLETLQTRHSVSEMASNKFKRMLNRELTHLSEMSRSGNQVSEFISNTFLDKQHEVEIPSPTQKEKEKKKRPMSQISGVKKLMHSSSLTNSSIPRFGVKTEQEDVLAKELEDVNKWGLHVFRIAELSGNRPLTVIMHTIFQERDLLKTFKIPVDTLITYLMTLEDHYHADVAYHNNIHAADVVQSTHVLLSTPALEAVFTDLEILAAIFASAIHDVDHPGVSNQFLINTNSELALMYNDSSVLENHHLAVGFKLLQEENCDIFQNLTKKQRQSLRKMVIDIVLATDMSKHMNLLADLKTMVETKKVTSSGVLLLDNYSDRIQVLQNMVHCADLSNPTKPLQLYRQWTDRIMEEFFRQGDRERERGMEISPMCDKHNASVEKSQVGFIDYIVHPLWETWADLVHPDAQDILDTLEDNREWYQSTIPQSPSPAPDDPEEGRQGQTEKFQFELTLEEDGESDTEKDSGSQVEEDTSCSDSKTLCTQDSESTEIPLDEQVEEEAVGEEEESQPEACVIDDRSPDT
Chain of Histamine H2 receptor (P25021 whole entry): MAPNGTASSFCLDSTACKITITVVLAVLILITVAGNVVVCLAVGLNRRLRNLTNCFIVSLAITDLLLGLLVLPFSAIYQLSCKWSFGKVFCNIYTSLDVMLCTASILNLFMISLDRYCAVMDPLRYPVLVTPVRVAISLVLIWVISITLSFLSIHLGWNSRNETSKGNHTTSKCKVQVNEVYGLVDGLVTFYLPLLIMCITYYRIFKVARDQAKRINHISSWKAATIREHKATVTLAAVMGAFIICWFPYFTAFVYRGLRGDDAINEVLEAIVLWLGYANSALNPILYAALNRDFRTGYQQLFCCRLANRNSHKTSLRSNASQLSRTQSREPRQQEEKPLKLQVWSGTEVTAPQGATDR
Chain of 5-hydroxytryptamine receptor 2B (P41595 whole entry): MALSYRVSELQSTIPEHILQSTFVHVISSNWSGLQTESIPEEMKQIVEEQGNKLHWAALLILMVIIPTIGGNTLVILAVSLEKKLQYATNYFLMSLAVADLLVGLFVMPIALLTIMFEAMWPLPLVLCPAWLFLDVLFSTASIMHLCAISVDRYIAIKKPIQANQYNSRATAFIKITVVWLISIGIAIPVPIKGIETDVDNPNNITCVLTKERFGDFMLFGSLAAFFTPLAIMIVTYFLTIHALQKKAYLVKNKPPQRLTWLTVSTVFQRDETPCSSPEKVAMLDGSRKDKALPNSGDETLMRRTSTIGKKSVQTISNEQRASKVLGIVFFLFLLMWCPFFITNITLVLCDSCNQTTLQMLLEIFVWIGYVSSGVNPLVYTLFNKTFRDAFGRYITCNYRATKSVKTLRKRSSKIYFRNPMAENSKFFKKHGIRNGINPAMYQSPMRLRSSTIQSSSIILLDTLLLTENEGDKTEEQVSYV
Chain of Cannabinoid receptor 1 (P21554 whole entry): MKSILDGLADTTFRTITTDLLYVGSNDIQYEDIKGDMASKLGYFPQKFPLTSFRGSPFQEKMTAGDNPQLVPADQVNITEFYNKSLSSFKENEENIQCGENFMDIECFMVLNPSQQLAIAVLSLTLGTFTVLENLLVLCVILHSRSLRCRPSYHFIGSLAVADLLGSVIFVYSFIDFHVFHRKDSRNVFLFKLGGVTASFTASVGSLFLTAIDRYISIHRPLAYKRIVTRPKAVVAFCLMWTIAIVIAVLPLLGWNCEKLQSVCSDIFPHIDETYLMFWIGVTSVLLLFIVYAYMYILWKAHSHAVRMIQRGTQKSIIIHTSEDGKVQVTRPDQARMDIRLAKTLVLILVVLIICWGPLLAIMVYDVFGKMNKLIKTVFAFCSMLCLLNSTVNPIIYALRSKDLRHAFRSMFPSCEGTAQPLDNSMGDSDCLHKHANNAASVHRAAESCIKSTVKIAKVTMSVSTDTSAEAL

Row | SMILES | AC50 [1] [µM] | AC50 [2] [µM] | AC50 [3] [µM] | AC50 (Histamine H2 receptor) [µM] | AC50 (D(3) dopamine receptor) [µM] | AC50 [4] [µM] | AC50 [5] [µM] | AC50 [6] [µM] | AC50 (Glucocorticoid receptor) [µM] | AC50 (Cannabinoid receptor 1) [µM]
1 | O=C1C(O)=C([C@H]2CC[C@H](c3ccc(Cl)cc3)CC2)C(=O)c2ccccc21 [ATOVAQUONE] | > 30 | > 30 | > 30 | > 30 | > 30 | > 30 | > 30 | > 30 | – | –
2 | COc1ccc(CCNCC(O)COc2cccc(C)c2)cc1OC (stereo not drawn) [BEVANTOLOL] | > 30 | > 10 | > 10 | > 30 | > 30 | > 30 | 14 | > 30 | > 10 | –
3 | Brc1c(NC2=NCCN2)ccc2nccnc12 [BRIMONIDINE] | > 30 | > 30 | > 30 | > 30 | > 30 | > 30 | > 30 | > 30 | > 30 | > 30
4 | CC(CC1c2ccccc2CCc2ccccc21)CN(C)C (stereo not drawn) [BUTRIPTYLINE] | > 30 | – | – | > 30 | 1.7 | > 30 | > 30 | 3 | – | > 30
5 | CC(C)(C)NCC(O)COc1cccc2c1CCC(=O)N2 (stereo not drawn) [CARTEOLOL] | > 30 | > 10 | > 10 | > 10 | > 30 | > 30 | > 10 | > 30 | > 10 | > 30
6 | Nc1nc(Cl)nc2c1ncn2[C@H]1C[C@H](O)[C@@H](CO)O1 [CLADRIBINE] | 0.97 | > 30 | > 30 | > 30 | > 30 | > 30 | > 30 | > 30 | > 30 | > 30
7 | Clc1ccccc1C(c1ccccc1)(c1ccccc1)n1ccnc1 [CLOTRIMAZOLE] | – | – | > 10 | > 10 | > 30 | > 30 | > 10 | > 30 | – | > 30
8 | COc1ccc2c3c1O[C@H]1[C@@H](O)CC[C@H]4[C@@H](C2)N(C)CC[C@@]341 [DIHYDROCODEINE] | > 30 | – | – | > 30 | > 30 | > 30 | > 30 | > 10 | – | > 30
9 | NC(=O)OCC(COC(N)=O)c1ccccc1 [FELBAMATE] | > 30 | > 10 | > 10 | > 10 | > 10 | > 30 | > 10 | > 30 | > 10 | –
10 | Fc1ccc(C(c2ccccc2)(c2ccccc2F)n2ccnc2)cc1 (stereo not drawn) [FLUTRIMAZOLE] | > 30 | > 30 | > 30 | > 30 | > 30 | > 30 | > 30 | > 30 | > 30 | > 30
11 | Cc1c(OCC(F)(F)F)ccnc1C[S+]([O-])c1nc2ccccc2[nH]1 (stereo not drawn) [LANSOPRAZOLE] | > 10 | > 30 | > 10 | > 10 | > 10 | 2.3 | > 10 | > 10 | > 30 | > 30
12 | NC(=O)CN1CC(O)CC1=O (stereo not drawn) [OXIRACETAM] | > 30 | > 30 | > 30 | > 30 | > 30 | > 30 | > 30 | > 30 | > 30 | > 30
13 | Cc1cc(C(C)(C)C)c(O)c(C)c1CC1=NCCN1 [OXYMETAZOLINE] | > 30 | – | > 30 | – | 20.1 | > 30 | – | 6.8 | – | > 30
14 | C[C@H]1COc2c(C3(N)CC3)c(F)cc3c(=O)c(C(=O)O)cn1c23 [PAZUFLOXACIN] | > 30 | > 10 | > 10 | > 10 | > 30 | > 30 | > 10 | > 30 | > 30 | –
15 | C[C@@H]1O[C@@H](O[C@@H]2C=C3CC[C@@H]4[C@H](CC[C@]5(C)[C@@H](c6ccc(=O)oc6)CC[C@]45O)[C@@]3(C)CC2)[C@H](O)[C@H](O)[C@H]1O [PROSCILLARIDIN] | > 30 | > 30 | > 30 | > 30 | > 30 | > 30 | > 30 | > 30 | > 30 | > 30
16 | CC/C(=C(\c1ccccc1)c1ccc(OCCN(C)C)cc1)c1ccccc1 [TAMOXIFEN] | – | – | > 10 | > 10 | 2.9 | > 30 | > 10 | 7 | – | –
17 | C#C[C@]1(O)CC[C@H]2[C@@H]3[C@H](C)CC4=C(CCC(=O)C4)[C@H]3CC[C@@]21C [TIBOLONE] | 6.9 | > 30 | > 30 | > 30 | > 30 | > 30 | > 30 | > 30 | – | > 30
18 | COc1cccc(C2(O)CCCCC2CN(C)C)c1 (stereo not drawn) [TRAMADOL] | > 30 | > 30 | – | > 10 | > 10 | > 30 | > 10 | > 30 | > 30 | > 30
19 | CC1(C)CCC(CN2CCN(c3ccc(C(=O)NS(=O)(=O)c4ccc(NCC5CCOCC5)c([N+](=O)[O-])c4)c(Oc4cnc5[nH]ccc5c4)c3)CC2)=C(c2ccc(Cl)cc2)C1 [VENETOCLAX] | > 30 | – | – | – | > 30 | – | – | – | – | –
